Assay results from ChEMBL document CHEMBL1122674, “Aporphines. 58. N-(2-chloroethyl) [8,9-2H]norapomorphine, an irreversible ligand for dopamine receptors: synthesis and application” (J Med Chem, 1984).

Experiments:
Dopamine receptor = test: Compound was evaluated for the competitive binding with [3H]spiperone binding to Canine striatal membranes.; set-up: species or system Canis lupus familiaris
[1] = molecular target: Dopamine receptor (Homo sapiens) (UniProt P14416+P35462+P21918+P21917+P21728); test: Compound was evaluated at 100 uM concentration to displace [3H]spiperone and result indicates the percent displacement.; type: protein assay; details: Canis lupus familiaris

SMILES: Oc1ccc2c(c1O)-c1cccc3c1[C@@H](C2)N(CCCl)CC3
- IC50 app (Dopamine receptor): 8 µM
- Displacement [1]: 70%
